Results reported in patent US9839647B2, “Equol concentration increasing agent containing psicose as active ingredient” (CJ CHEILJEDANG CORPORATION, priority 2011, dated 2017).

Assays:
[1] = tested on: intestinal bacteria capable of producing equol; conditions: saccharide no add = 100.0; cited from earlier work
[2] = tested on: equol producing microorganism population; assay: Change in produced equol amount in the presence of carbohydrate (TLC image analysis); type: cell-based, human; conditions: for Variation (produced equol amount relative to culture solution containing xylose and daidzein): 1% carbohydrate, 0.1 mM daidzein, three days, xylose = 100, average of image analysis for two coloring methods
Procedure: The activity for regulating equol concentration by psicose was calculated as follows. To a microorganism population stock having capability to produce equol (obtained by centrifuging and washing feces taken from equol producers, KR Patent Registration No. 2008-0072635), daidzein as a substrate for equol, and psicose were added, followed by culturing and measuring the equol concentration in a culture solution. The measured equol concentration was inserted together with equol concentration in a culture solution containing daidzein and xylose into Equation for calculating equol variation percentage below: Equol variation percentage (%)=(Equol concentration in the culture solution containing psicose and daidzein)/(Equol concentration in the culture solution containing xylose and daidzein)×100
GAM (Gifu anaerobic medium) medium (4 ml) was inoculated with equol producing microorganism population stock stored in liquid nitrogen (obtained by centrifuging and washing feces taken from equol producers, KR Patent Registration No. 2008-0072635), followed by cultivating for 3-4 hours to activate.
When OD (optical density) approached 1.5, 200 μl of medium was taken and transferred to an Eppendorf tube. To the Eppendorf tube, 0.1 mM of daidzein was added, followed by vortexing to initiate reaction.
In order to measure equol production over time, 50 μl of medium was sampled 1, 2 and 3 days after the inoculation.
To the medium, 1 ml of ethyl acetate was added to extract isoflavonoids. Extraction was performed as follows: after vortexing and centrifugation, 800 μl of ethyl acetate was taken from the medium, followed by removal of the solvent through vacuum drying. Then, the resultant was dissolved in 10 μl of methanol. 2 μl was used to perform TLC.
Equol producing microorganism population was inoculated and the product was extracted in the same manner as in Example 1 except that, before the substrate was inoculated with the activated microorganism population, the final concentration of carbohydrate was adjusted to 1% by adding 2 mg each of xylose, tagatose, psicose, sucrose, fructo-oligosaccharide, and glucose. Further, only daidzein was used as the substrate. Unlike the case where pure daidzein was used, the reaction rate of producing equol was changed when carbohydrates were added. Namely, the production of equol occurred more slowly for a long period of time.
In order to compare variation in the produced equol amount in the product, quantitative analysis of TLC results was performed using an image analyzer.
Assuming the produced equol amount in the culture solution containing xylose and daidzein to be 100, the produced equol amount after addition of each carbohydrate for three days was compared. The comparison results are as follows.

Compound | Activity to regulate equol concentration [1] [%] | Variation (produced equol amount relative to culture solution containing xylose and daidzein) [2] [%] | equol production ([2]; reaction condition for three days)
OC[C@H]1O[C@@H](O[C@@H]2[C@@H](CO)OC(O)(CO)[C@H]2O)[C@H](O)[C@@H](O)[C@H]1O (mixture of isomers) [Lactulose] | 8.1 |  | 
OC[C@@H](O)[C@@H](O)[C@@H](O)CO [Adonitol, adonitol] | 260.0 |  | 
O=C[C@@H](O)[C@H](O)[C@H](O)CO [Arabinose, arabinose] | 391.1 |  | 
O=C[C@H](O)[C@@H](O)[C@H](O[C@@H]1O[C@H](CO)[C@@H](O)[C@H](O)[C@H]1O)[C@H](O)CO [Cellobiose] | 160.6 |  | 
OC[C@@H](O)[C@@H](O)CO [Erythritol, erythritol] | 214.2 |  | 
O=C(CO)[C@@H](O)[C@H](O)[C@H](O)CO [Fructose] | 51.5 |  | 
O=C[C@H](O)[C@@H](O)[C@@H](O)[C@H](O)CO [Galactose, galactose] | 240.1 |  | 
O[C@H]1[C@H](O)[C@@H](O)[C@H](O)[C@@H](O)[C@H]1O [Inositol, inositol] | 416.2 |  | 
OC[C@@H](O)[C@@H](O[C@@H]1O[C@H](CO)[C@H](O)[C@H](O)[C@H]1O)[C@H](O)[C@@H](O)CO [Lactitol, lactitol] | 459.1 |  | 
OC[C@H]1O[C@@H](O[C@H]2[C@H](O)[C@@H](O)C(O)O[C@@H]2CO)[C@H](O)[C@@H](O)[C@H]1O (some centres unmarked) [Lactose] | 0.0 |  | 
OC[C@H]1O[C@H](O[C@H]2[C@H](O)[C@@H](O)[C@H](O)O[C@@H]2CO)[C@H](O)[C@@H](O)[C@@H]1O [Maltose] | 58.5 |  | 
OC[C@@H](O)[C@@H](O)[C@H](O)[C@H](O)CO [Mannitol] | 182.2 |  | 
OC[C@H]1O[C@@](CO)(O[C@H]2O[C@H](CO)[C@@H](O)[C@H](O)[C@H]2O)[C@@H](O[C@H]2O[C@H](CO)[C@@H](O)[C@H](O)[C@H]2O)[C@@H]1O [Melezitose, melezitose] | 411.6 |  | 
OC[C@H]1O[C@H](OCC2O[C@@H](O)[C@H](O)[C@@H](O)[C@@H]2O)[C@H](O)[C@@H](O)[C@H]1O (some centres unmarked) [Melibiose] | 24.8 |  | 
O=C(CO)[C@H](O)[C@H](O)[C@H](O)CO [Psicose, D-psicose] |  | 139 | significantly promoted equol production
OC[C@H]1O[C@H](OC[C@H]2O[C@H](O[C@]3(CO)O[C@H](CO)[C@@H](O)[C@@H]3O)[C@H](O)[C@@H](O)[C@@H]2O)[C@H](O)[C@@H](O)[C@H]1O [Raffinose] | 0.0 |  | 
C[C@H](O)[C@H](O)[C@@H](O)[C@@H](O)C=O [Rhamnose] | 116.4 |  | 
O=C[C@H](O)[C@H](O)[C@H](O)CO [Ribose, ribose] | 329.6 |  | 
OC[C@@H](O)[C@@H](O)[C@H](O)[C@@H](O)CO [Sorbiol] | 372.5 |  | 
O=C(CO)[C@H](O)[C@@H](O)[C@H](O)CO [Sorbose, sorbose] | 467.7 |  | 
OC[C@H]1O[C@@](CO)(O[C@H]2O[C@H](CO)[C@@H](O)[C@H](O)[C@H]2O)[C@@H](O)[C@@H]1O [Sucrose, sucrose] | 0.0 | 54 | 
O=C(CO)[C@@H](O)[C@@H](O)[C@H](O)CO [Tagatose, tagatose] |  | 54 | 
OC[C@H]1O[C@H](O[C@H]2O[C@H](CO)[C@@H](O)[C@H](O)[C@H]2O)[C@H](O)[C@@H](O)[C@@H]1O [Trehalose, trehalose] | 403.5 |  | 
O=C[C@H](O)[C@@H](O)[C@H](O)CO [Xylose, xylose] | 442.6 | 100 | 
Glycogen | 184.8 |  | 
Inulin | 0.0 |  | 
